Patent US6207677A, “Piperidine derivatives having anxiolytic effect” (H. Lundbeck A/S, priority 1991, dated 2001)

Tests used:
[1] = target: sigma receptors; test: Inhibition of 3H-DTG binding to sigma receptors in rat brain in vitro; details: 2 nM 3H-DTG, rat brain without cerebellum, 25° C., 20 min
[2] = test system: psychosis; details: Snyder, Largent 1989; cited from earlier work

O=S1(=O)CC(CCCCN2CCC3(CC2)OCc2ccccc23)c2ccccc21 (stereo not drawn) [Compound 33, 1'-[4-(2,3-Dihydro-benzo[b]thiophen-3-yl)-1-butyl]spiro[isobenzofuran-1(3H),4'-piperidine]-S,S-dioxide]
IC50 [1]: 0.95 nM

c1ccc2c(c1)COC21CCN(CCCOc2csc3ccccc23)CC1 [Compound 34, 1'-[3-(Benzo[b]thiophen-3-yloxy)-1-propyl]spiro[isobenzofuran-1(3H),4'-piperidine]]
IC50 [1]: 0.27 nM

c1ccc2c(c1)COC21CCN(CCOCc2csc3ccccc23)CC1 [Compound 35a, 1'-[2-(Benzo[b]thiophen-3-ylmethyloxy)-1-ethyl]spiro[isobenzofuran-1(3H),4'-piperidine]]
IC50 [1]: 0.73 nM

Fc1ccc2occ(COCCN3CCC4(CC3)OCc3ccccc34)c2c1 [Compound 35b, 1'-[2-(5-Fluorobenzofuran-3-ylmethyloxy)-1-ethyl]spiro[isobenzofuran-1(3H),4'-piperidine]]
IC50 [1]: 2.8 nM

CN(C)CCn1cc(CCCCN2CCC3(CC2)OCc2ccccc23)c2ccccc21 [Compound 36, 1'-[4-(1-(2-Dimethylamino-1-ethyl)-3-indolyl)-1-butyl]spiro[isobenzofuran-1(3H) ,4'-piperidine]]
IC50 [1]: 4.5 nM

C[C@@H]1CN(CCCn2c3ccccc3c3ccccc32)C[C@H](C)N1 [rimcazole, reference compound]
clinical effect in psychosis [2]: clinically shows effects in the treatment of psychosis
